# Reference: US5183821A, “Method for treating leukemias using N-(2-dimethylaminoethyl)-3-amino-1,8-naphthalimide for treating leukemias and solid tumors” (priority 1991, dated 1993)
# “And” between values parts separate entries of the source, which are not always exact repeats. Identical values can stand only once. “Also recorded” adds a separate entry of the source.
# What was measured:
# L-1210 Lymphoid Leukemia [1] = test: NCI screen, L-1210 Lymphoid Leukemia, intraperitoneal (summary); assay type: in vivo, Mouse; settings: for Table II evaluation: full wrapped cell: Activity substantially greater than the minimal
# From the text: (§1) The activity of the compound has been evaluated by experiments carried out under the auspices of the Division of Cancer Treatment, National Cancer Institute, employing techniques considered to be reliable indicators of chemotherapeutic utility in the treatment of forms of cancer in human patients. The details of the methodology employed in the reported experiments may be determined with reference to established NCI screening methods.
# (§2) In the experiments conducted by the NCI, evaluation of activity is made on the basis of appropriate parameters, such as median survival time (MST) or change in average tumor diameter (CATD)in ocular micrometer units (OMU).
# Colon 38 = test: Experiment 12 (second): Colon 38 s.c., saline with Tween-80, female; assay type: in vivo, Mouse B6 D2 F1 (BDF1)
# From the text: Host: Mouse B6 D2 F1 (BDF1)
# Inoculum Site: Subcutaneous
# (§3) Vehicle: Saline with Tween-80
# Treatment schedule (relative to tumor inoculation day): days 2 and 9
# Day of evaluation (relative to tumor inoculation day): 20
# Parameter: Median tumor weight (MTW) estimated from tumor diameter
# NCI minimal activity criteria: Percent T/C≤42
# (§4) Percent T/C: Ratio of test (T) evaluation to control (C) evaluation expressed as a percentage
# L-1210 Lymphoid leukemia [2] = test: Experiment 5: L-1210 i.p., 10^5 cells, acid diluted with saline, female; assay type: in vivo, Mouse CD2 F1 (CDF1)
# From the text: (§5) Host: Mouse CD2 F1 (CDF1)
# Tumor: L-1210 Lymphoid leukemia
# (§6) Inoculum Site: Intraperitoneal
# Vehicle: Acid diluted with saline
# (§7) Treatment schedule (relative to tumor inoculation day): daily on days 1-9
# (§8) Day of evaluation (relative to tumor inoculation day): 30
# (§9) Parameter: Median survival time (MST) in days
# NCI minimal activity criteria: Percent T/C≥125
# as §4
# beagle dogs = test: Single dose dog toxicity study; assay type: in vivo; settings: for Mortality / lethality: single; for toxicity summary, dogs: single dose i.v.
# Procedure: Preclinical toxicity studies of BIDA were completed in CD2F1 Mice, Fischer 344 rats and beagle dogs (4). The animals were injected IV with a single bolus or daily for five days.
# A preclinical toxicology study of benzisoquinolinedione (NSC-308847) was done at Springborn Institute for Bioresearch, Inc. using CD2 F1 mice, Fischer 344 rats and beagle dogs. Animals were injected intravenously on a single dose (X1) or five daily dose (X5) regimen. Bulk drug was titrated with 0.5N HCl to form a salt solution of benzisoquinolinedione at a pH of 5.0-6.5. Sterile 0.9% saline was used for diluting the dosing solutions and was used for the vehicle control animals.
# The following summarizes the major organ toxicities resulting from IV administration of benzisoquinolinedione to dogs.
# [3] = test system: P388 Lymphocytic leukemia; test: Experiment 11: P388 i.p., 10^6 cells, saline with Tween-80, female; assay type: in vivo, Mouse CD2 F1 (CDF1)
# From the text: as §5
# Tumor: P388 Lymphocytic leukemia
# as §6, §3, §7, §8, §9
# NCI minimal activity criteria: Percent T/C≥120
# as §4
# B16 Melanocarcinoma = test: NCI screen, B16 Melanocarcinoma, intraperitoneal (summary); assay type: in vivo, Mouse; settings: for Antitumor activity in words: B16
# From the text: as §1, §2
# [4] = 18.4 mg/kg, three dogs, days 2, 3 and/or 4
smiles,measurement,setting,value
"CN(C)CCN1C(=O)c2cccc3cc(N)cc(c23)C1=O [Example 9, 1H-Benz[de]isoquinoline-1,3(2H)-dione, 5-amino-2-[2-(dimethylamino)ethyl]]",Table II evaluation,"L-1210 Lymphoid Leukemia [1]; mean survival time, 12 tests",Activity
same,Table II evaluation,"L-1210 Lymphoid Leukemia [1]; median survival time, 21 tests",Activity
same,activity by other routes,L-1210 Lymphoid Leukemia [1]; p.o. or I.V.,is retained when given p.o. or I.V.
same,ILS,L-1210 Lymphoid Leukemia [1]; solution in 0.1 N HCl diluted with saline,117%
same,Median tumor weight (MTW),Colon 38; 8.00 mg/kg i.p.,1100
same,Percent T/C,Colon 38; 8.00 mg/kg i.p.,88%
same,Median tumor weight (MTW),Colon 38; 16.00 mg/kg i.p.,1256
same,Percent T/C,Colon 38; 16.00 mg/kg i.p.,100%
same,Median tumor weight (MTW),Colon 38; 32.00 mg/kg i.p.,1005
same,Percent T/C,Colon 38; 32.00 mg/kg i.p.,80%
same,Median tumor weight (MTW),Colon 38; 64.00 mg/kg i.p.,699
same,Percent T/C,Colon 38; 64.00 mg/kg i.p.,55%
same,Median tumor weight (MTW),Colon 38; 128.00 mg/kg i.p.,Deaths before evaluation
same,Median survival time (MST),L-1210 Lymphoid leukemia [2]; 5.00 mg/kg i.p.,11.0 days
same,Percent T/C,L-1210 Lymphoid leukemia [2]; 5.00 mg/kg i.p.,113%
same,Median survival time (MST),L-1210 Lymphoid leukemia [2]; 7.00 mg/kg i.p.,11.1 days
same,Percent T/C,L-1210 Lymphoid leukemia [2]; 7.00 mg/kg i.p.,114%
same,Median survival time (MST),L-1210 Lymphoid leukemia [2]; 10.00 mg/kg i.p.,11.4 days
same,Percent T/C,L-1210 Lymphoid leukemia [2]; 10.00 mg/kg i.p.,117%
same,Median survival time (MST),L-1210 Lymphoid leukemia [2]; 16.00 mg/kg i.p.,17.0 days
same,Percent T/C,L-1210 Lymphoid leukemia [2]; 16.00 mg/kg i.p.,175%
same,Median survival time (MST),L-1210 Lymphoid leukemia [2]; 24.00 mg/kg i.p.,13.3 days
same,Percent T/C,L-1210 Lymphoid leukemia [2]; 24.00 mg/kg i.p.,137%
same,gross or microscopic lesions,beagle dogs; 0.92 mg/kg,No drug-related gross or microscopic lesions were found
same,Mortality / lethality,beagle dogs; 0.92 mg/kg (1/10MELD10),0/4
same,SGPT,"beagle dogs; 0.92 mg/kg, days 2 and 4",27-40 I.U./L
same,BUN,"beagle dogs; 0.92 mg/kg, one dog, day 4",26 mg/dL
same,Creatinine,"beagle dogs; 0.92 mg/kg, one dog, day 4",1.29 mg/dL
same,gross or microscopic lesions,beagle dogs; 9.2 mg/kg,No drug-related gross or microscopic lesions were found
same,Mortality / lethality,beagle dogs; 9.2 mg/kg (MELD10),0/4
same,Creatinine,"beagle dogs; 9.2 mg/kg, day 4",1.31 mg/dL
same,BUN,"beagle dogs; 9.2 mg/kg, one dog, days 2 and 4",22 to 23 mg/dL
same,SGPT,"beagle dogs; 9.2 mg/kg, three dogs, days 2 and/or 4",32-43 I.U./L
same,Nervous system signs,beagle dogs; 18.4 mg/kg,"vocalizations, struggling against restraint, excessive salivation, hyperextension of all limbs and/or labored breathing"
same,Mortality / lethality,"beagle dogs; 18.4 mg/kg (2XMELD10), listed as BIDA",Neither the single injection of 2×MELD10 or the daily×5 injection of the 3×MELD10 caused lethality
same,Mortality / lethality,"beagle dogs; 18.4 mg/kg (2XMELD10), listed as benzisoquinolinedione",no deaths and 0/4
same,BUN,"beagle dogs; 18.4 mg/kg, all dogs, day 2",23 to 32 mg/dL
same,leukopenia (leukocyte count),"beagle dogs; 18.4 mg/kg, days 3, 8 or 4",3.8-5.4 ×10^3 /cmm
same,gross or microscopic lesions,"beagle dogs; 18.4 mg/kg, listed as benzisoquinolinedione",No gross or microscopic lesions were seen; also recorded: No drug-related gross or microscopic lesions were found
same,SGOT,beagle dogs; [4],43-70 I.U./L
same,SGPT,beagle dogs; [4],40-57 I.U./L
same,BUN,"beagle dogs; 18.4 mg/kg, two long-term dogs, days 22 and 29 or 28",23 to 29 mg/dL
same,"toxicity summary, dogs",beagle dogs; listed as BIDA,"Hematopoletic, renal and hepatic toxicity; also recorded: Signs indicating pain and/or neurotoxicity"
same,"toxicity summary, dogs",beagle dogs; listed as benzisoquinolinedione,"reversible toxicity to the hematopoietic system, kidney and liver; also recorded: Signs indicative of pain and/or neurotoxicity; also recorded: No drug-related gross or microscopic lesions"
same,Median survival time (MST),[3]; 8.00 mg/kg i.p.,17.0 days
same,Percent T/C,[3]; 8.00 mg/kg i.p.,144%
same,Median survival time (MST),[3]; 16.00 mg/kg i.p.,21.0 days
same,Percent T/C,[3]; 16.00 mg/kg i.p.,177%
same,Median survival time (MST),[3]; 32.00 mg/kg i.p.,7.3 days
same,Median survival time (MST),[3]; 65.00 mg/kg i.p.,6.4 days
same,increased life spans,"B16 Melanocarcinoma; 16 mg/kg i.p. days 1-9, three experiments",37-55%
same,Antitumor activity in words,B16 Melanocarcinoma; listed as BIDA,Activity was seen
same,Antitumor activity in words,B16 Melanocarcinoma; listed as the compound,at least a reproducible minimal activity; also recorded: active
same,Table II evaluation,"B16 Melanocarcinoma; median survival time, 28 tests, full wrapped cell: Reproducible minimal activity",Reproducible minimal
